Experimental data: US12558337B2, “Formulations comprising melflufen” (ON[…], priority 2019, dated 2026)
Structures can show the parent of a compound that is named as a salt.

Experiment: Stability of liquid formulations containing a melflufen salt and propylene glycol at room temperature (HPLC-MS)
Type: physicochemical
Details: for Purity of melfufen in the liquid formulation containing a melfufen salt and propylene glycol at RT: 20 mg/mL in propylene glycol, RT (20-25° C.); for stability on storage: in propylene glycol, room temperature (RT), over 7 weeks
Description: The solubility and stability of ethanesulfonic acid, p-toluenesulfonic acid and hydrochloric acid salts of melflufen in propylene glycol were investigated. 10 mg of each melflufen salt was transferred to transparent 4 mL vials and propylene glycol (Merck Lot # K51750378936, 1.07478.2500) was added to a concentration of 20 mg/mL. The vials were shaken for a short time and stored at room temperature (RT, 20-25° C.).
The stability of the melflufen salt solutions were analysed at weekly time points by Analytical HPLC-MS using an Agilent 1100 series Liquid Chromatograph/Mass Selective Detector (MSD) (Single Quadrupole) equipped with an electrospray interface and a UV diode array detector. Analysis was performed by using an ACE 3 C8 (3.0×50 mm) column with a gradient of 10-97% acetonitrile in 0.1% aqueous TFA over 3 min and a flow of 1 mL/min. UV was monitored at 305 nm. At each time point (0, 1, 2, 3, 4, 5, 6 and 7 weeks) 10 μL of the melflufen solution was diluted with 490 μL of acetonitrile before HPLC-MS analysis.

SMILES | Purity of melfufen in the liquid formulation containing a melfufen salt and propylene glycol at RT (0 weeks) | Purity of melfufen in the liquid formulation containing a melfufen salt and propylene glycol at RT (1 week) | Purity of melfufen in the liquid formulation containing a melfufen salt and propylene glycol at RT (2 weeks) | Purity of melfufen in the liquid formulation containing a melfufen salt and propylene glycol at RT (3 weeks) | Purity of melfufen in the liquid formulation containing a melfufen salt and propylene glycol at RT (4 weeks) | Purity of melfufen in the liquid formulation containing a melfufen salt and propylene glycol at RT (5 weeks) | Purity of melfufen in the liquid formulation containing a melfufen salt and propylene glycol at RT (6 weeks) | Purity of melfufen in the liquid formulation containing a melfufen salt and propylene glycol at RT (7 weeks) | stability on storage
CCOC(=O)[C@H](Cc1ccc(F)cc1)NC(=O)[C@@H](N)Cc1ccc(N(CCCl)CCCl)cc1.Cc1ccc(S(=O)(=O)O)cc1 [melflufen p-toluenesulfonic acid salt, Ethyl (2S)-2-[[(2S)-2-amino-3-[4-[bis(2-chloroethyl)amino]phenyl]propanoyl]amino]-3-(4-fluorophenyl)propanoate;4-methylbenzenesulfonic acid] | 100 % relative peak area | 96 % relative peak area | 95 % relative peak area | 93 % relative peak area | 91 % relative peak area | 89 % relative peak area | 88 % relative peak area | 87 % relative peak area | good stability
CCOC(=O)[C@H](Cc1ccc(F)cc1)NC(=O)[C@@H](N)Cc1ccc(N(CCCl)CCCl)cc1 [melflufen hydrochloric acid salt, L-Melphalanyl-4-fluoro-L-phenylalanine ethyl ester, reference compound] | 100 % relative peak area | 100 % relative peak area | 95 % relative peak area | 94 % relative peak area | 92 % relative peak area | 89 % relative peak area | 87 % relative peak area | 85 % relative peak area | good stability
CCOC(=O)[C@H](Cc1ccc(F)cc1)NC(=O)[C@@H](N)Cc1ccc(N(CCCl)CCCl)cc1.CCS(=O)(=O)O [melflufen ethanesulfonic acid salt, ethanesulfonic acid;ethyl (2S)-2-[[(2S)-2-amino-3-[4-[bis(2-chloroethyl)amino]phenyl]propanoyl]amino]-3-(4-fluorophenyl)propanoate] | 100 % relative peak area | 95 % relative peak area | 94 % relative peak area | 93 % relative peak area | 94 % relative peak area | 89 % relative peak area | 88 % relative peak area | 87 % relative peak area | good stability
